Earlier results, collected in US12290522B2, “Method of treating amyotrophic lateral sclerosis” (Woolsey Pharmaceuticals, Inc., priority 2021, dated 2025).

Settings: in vivo; 1-hydroxy metabolite; Shibuya 2001; cited from earlier work

O=S(=O)(c1cccc2c(O)nccc12)N1CCCNCC1 [M3]
half-life: about 8 hours
